Literature values, collected in patent publication US9314021B2, “Formulations containing insect repellent compounds” (E I DU PONT DE NEMOURS AND COMPANY, priority 2004, dated 2016).

Test system: ant species Monomorium destructor
Conditions: pure undiluted compound; after 25 seconds of exposure; during feeding

CC1COC(=O)C2C(C)CCC12 (stereo not shown) [dihydronepetalactone]
ants ceased to feed: 50-60%
